The target in one experiment is JAK1 (Homo sapiens (Human), UniProt P23458). The experiment is described as follows: Jak Biochemical HTRF Assay, JAK1. The note with it: read-out: JAK1 IC50. The text has this:
(§1) Jak Biochemical HTRF Assay Protocol
(§2) Subsequent reagent additions employed an Agilent Bravo.
(In general: Time-resolved FRET reads energy transfer from a long-lived donor to a nearby acceptor.)

Another experiment deals with JAK2 (Homo sapiens (Human), UniProt O60674). The experiment is described as follows: Jak Biochemical HTRF Assay, JAK2.
Chain of JAK2 (O60674 849-1124): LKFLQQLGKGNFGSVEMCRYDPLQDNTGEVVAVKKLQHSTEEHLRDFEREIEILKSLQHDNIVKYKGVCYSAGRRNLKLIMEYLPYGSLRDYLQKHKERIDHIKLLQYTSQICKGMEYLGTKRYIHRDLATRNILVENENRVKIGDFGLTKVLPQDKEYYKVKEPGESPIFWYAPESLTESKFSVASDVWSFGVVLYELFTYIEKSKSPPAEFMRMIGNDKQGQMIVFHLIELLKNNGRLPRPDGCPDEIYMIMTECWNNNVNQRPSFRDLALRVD
Text: as §1, §2

Where [1] appears, read: HTRF biochemical assay, GST-tagged catalytic domain, top concentration tested […].

Read-outs that look alike come from different tables or passages of the source.

Chain of JAK1 (P23458 875-1153): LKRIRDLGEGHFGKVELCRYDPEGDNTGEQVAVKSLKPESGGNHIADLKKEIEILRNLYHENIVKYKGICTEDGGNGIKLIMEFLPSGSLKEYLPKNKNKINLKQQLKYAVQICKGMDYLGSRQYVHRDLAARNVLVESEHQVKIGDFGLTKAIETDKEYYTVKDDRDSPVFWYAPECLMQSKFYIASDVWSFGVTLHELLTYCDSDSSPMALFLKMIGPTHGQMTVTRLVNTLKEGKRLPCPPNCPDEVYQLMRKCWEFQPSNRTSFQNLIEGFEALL

In general, IC50 refers to the concentration at which inhibition is half-maximal. As to `CC(O)c1ccc(Nc2nn(C3(CC#N)CCN(C(=O)OC(C)(C)C)CC3)cc2C(N)=O)cc1` (stereo not shown) [Example 9-9, tert-butyl 4-(4-carbamoyl-3-(4-(1-hydroxyethyl)phenylamino)-1H-pyrazol-1-yl)-4-(cyanomethyl)piperidine-1-carboxylate], the values for the IC50 at JAK1 (setting [1]) and against JAK2 (setting [1]) were 0.4 nM and 6 nM, respectively.

Regarding `CCOc1ccccc1NC(=O)N1CC(CC#N)(n2cc(C(N)=O)c(Nc3ccccc3)n2)C1` [Example 38-30, 1-{3-(cyanomethyl)-1-[(2-ethoxyphenyl)carbamoyl]azetidin-3-yl}-3-(phenylamino)-1H-pyrazole-4-carboxamide], the IC50 amounted to 62 nM on JAK1 (setting [1]) and 507 nM against JAK2 (setting [1]).

`COc1cc(Nc2nn(C3(CC#N)CCN(C(=O)OCC(F)F)CC3)cc2C(N)=O)ccn1` [Example 9-39, 2,2-difluoroethyl 4-{4-carbamoyl-3-[(2-methoxypyridin-4-yl)amino]-1H-pyrazol-1-yl}-4-(cyanomethyl)piperidine-1-carboxylate]: the IC50 at JAK1 (setting [1]) is 7 nM; against JAK2 (setting [1]), 348 nM.

Regarding `COc1ccc(N2CCC(CC#N)(n3cc(C(N)=O)c(Nc4ccc(F)cc4)n3)CC2)cc1OC` [Example 3-1, 1-[4-(Cyanomethyl)-1-(3,4-dimethoxyphenyl)piperidin-4-yl]-3-[(4-fluorophenyl)amino]-1H-pyrazole-4-carboxamide], the IC50 came out at 4 nM at JAK1 (setting [1]) and 154 nM against JAK2 (setting [1]).

As for `N#CCC1(n2cc(C(N)=O)c(Nc3ccc(F)cc3)n2)CCS(=O)(=O)CC1` [Example 8, 1-(4-(Cyanomethyl)-1,1-dioxidotetrahydro-2H-thiopyran-4-yl)-3-((4-fluorophenyl)amino)-1H-pyrazole-4-carboxamide], the IC50 was found to be 50 nM at JAK1 (setting [1]) and 813 nM against JAK2 (setting [1]).

Consider `N#CCC1(n2cc(C(N)=O)c(Nc3ccc(F)cc3)n2)CCN(c2cncc(C(F)(F)F)c2)CC1` [Example 3-8, 1-{4-(cyanomethyl)-1-[5-(trifluoromethyl)pyridin-3-yl]piperidin-4-yl}-3-[(4-fluorophenyl)amino]-1H-pyrazole-4-carboxamide], for which the IC50 on JAK1 (setting [1]) was found to be 1 nM; on JAK2 (setting [1]), 54 nM.

With `N#CCC1(n2cc(C(N)=O)c(Nc3ccccc3)n2)CCN(C(=O)OC2CCCCC2)CC1` [Example 30-31, cyclohexyl 4-[4-carbamoyl-3-(phenylamino)-1H-pyrazol-1-yl]-4-(cyanomethyl)piperidine-1-carboxylate], the results for the IC50 at JAK1 (setting [1]) and against JAK2 (setting [1]) were 8 nM and 318 nM, respectively.

With `N#CCC1(n2cc(C(N)=O)c(Nc3ccnc(F)c3)n2)CCC(Nc2ccc(F)cc2F)CC1` (stereo not drawn) [Example 40-33, Cis or trans 1-{1-(cyanomethyl)-4-[(2,4-difluorophenyl)amino]cyclohexyl}-3-[(2-fluoropyridin-4-yl)amino]-1H-pyrazole-4-carboxamide], the IC50 stood at 0.03 nM on JAK1 (setting [1]) and 0.8 nM against JAK2 (setting [1]).

On to `CC(C)(C)OC(=O)N1CCC(CC#N)(n2cc(C(N)=O)c(Nc3ccc(CC(=O)O)cc3)n2)CC1` [Example 18, [4-({1-[1-(tert-Butoxycarbonyl)-4-(cyanomethyl)piperidin-4-yl]-4-carbamoyl-1H-pyrazol-3-yl}amino)phenyl]acetic acid], for which the IC50 at JAK1 (setting [1]) stood at 0.1 nM; against JAK2 (setting [1]) it was 10 nM.

For `CC(C)(C)OC(=O)N1CCC(CC#N)(n2cc(C(N)=O)c(Nc3ccc4c(c3)CNC4=O)n2)CC1` [Example 12-7, tert-butyl 4-{4-carbamoyl-3-[(1-oxo-2,3-dihydro-1H-isoindol-5-yl)amino]-1H-pyrazol-1-yl}-4-(cyanomethyl)piperidine-1-carboxylate], the values for the IC50 at JAK1 (setting [1]) and against JAK2 (setting [1]) were 0.1 nM and 2 nM, respectively.

On to `N#CCC1(n2cc(C(N)=O)c(Nc3ccc(S(=O)(=O)C(F)F)cc3)n2)CCC(Nc2cccc(O)c2)CC1` (stereo not drawn) [Example 40-44, Cis or trans 1-{1-(cyanomethyl)-4-[(3-hydroxyphenyl)amino]cyclohexyl}-3-({4-[(difluoromethyl)sulfonyl]phenyl}amino)-1H-pyrazole-4-carboxamide], for which the IC50 on JAK1 worked out at 0.1 nM; at JAK2 it was 0.8 nM.

With `N#CCC1(n2cc(C(N)=O)c(Nc3ccc(F)cc3)n2)CCC(N2CC(F)C2)CC1` (stereo not drawn) [Example 40-100, Cis or trans 1-[1-(cyanomethyl)-4-(3-fluoroazetidin-1-yl)cyclohexyl]-3-[(4-fluorophenyl)amino]-1H-pyrazole-4-carboxamide], the figures for the IC50 on JAK1 (setting [1]) and against JAK2 (setting [1]) were 18 nM and 216 nM, respectively.

As to `N#CCC1(n2cc(C(N)=O)c(Nc3ccccc3)n2)CN(C(=O)NC2CCCCC2)C1` [Example 38-2, 1-[3-(cyanomethyl)-1-(cyclohexylcarbamoyl)azetidin-3-yl]-3-(phenylamino)-1H-pyrazole-4-carboxamide], the values for the IC50 on JAK1 (setting [1]) and against JAK2 (setting [1]) were 20 nM and 628 nM, respectively.

With `COc1ccc(CN2CCC(CC#N)(n3cc(C(N)=O)c(Nc4ccnc(F)c4)n3)CC2)cc1` [Example 22-65, 1-[4-(cyanomethyl)-1-(4-methoxybenzyl)piperidin-4-yl]-3-[(2-fluoropyridin-4-yl)amino]-1H-pyrazole-4-carboxamide], the IC50 on JAK1 (setting [1]) is 1 nM; on JAK2 (setting [1]), 16 nM.

With `N#CCC1(n2cc(C(N)=O)c(Nc3ccc(F)cc3)n2)CCN(c2ccncn2)CC1` [Example 26, 1-[4-(Cyanomethyl)-1-pyrimidin-4-ylpiperidin-4-yl]-3-[(4-fluorophenyl)amino]-1H-pyrazole-4-carboxamide], the IC50 at JAK1 (setting [1]) turned out to be 0.4 nM; against JAK2 (setting [1]), 5 nM.

On to `N#CCC1(n2cc(C(N)=O)c(Nc3ccc(F)cc3)n2)CCN(CC2CC2)CC1` [Example 24-2, 1-[4-(cyanomethyl)-1-(cyclopropylmethyl)piperidin-4-yl]-3-[(4-fluorophenyl)amino]-1H-pyrazole-4-carboxamide], for which the IC50 at JAK1 (setting [1]) stood at 41 nM; against JAK2 (setting [1]), 917 nM.

`N#CCC1(n2cc(C(N)=O)c(Nc3cccc(Cn4nnc5ccccc54)c3)n2)CCN(C(=O)OCC(F)(F)F)CC1` [Example 4-4, 2,2,2-trifluoroethyl 4-(3-{[3-(1H-benzotriazol-1-ylmethyl)phenyl]amino}-4-carbamoyl-1H-pyrazol-1-yl)-4-(cyanomethyl)piperidine-1-carboxylate]: the values for the IC50 on JAK1 (setting [1]) and against JAK2 (setting [1]) were 0.5 nM and 23 nM, respectively.

In the case of `N#CCC1(n2cc(C(N)=O)c(Nc3ccccc3)n2)CCN(Cc2ccc3c(c2)OCO3)CC1` [Example 21-10, 1-[1-(1,3-benzodioxol-5-ylmethyl)-4-(cyanomethyl)piperidin-4-yl]-3-(phenylamino)-1H-pyrazole-4-carboxamide], the half-inhibitory concentration (IC50) is 8 nM on JAK1 (setting [1]) and 78 nM at JAK2 (setting [1]).

`COC1CN(C2CCC(CC#N)(n3cc(C(N)=O)c(Nc4ccnc(F)c4)n3)CC2)C1` (stereo not drawn) [Example 40-81, Cis or trans 1-[1-(cyanomethyl)-4-(3-methoxyazetidin-1-yl)cyclohexyl]-3-[(2-fluoropyridin-4-yl)amino]-1H-pyrazole-4-carboxamide]: the IC50 turned out to be 0.1 nM at JAK1 (setting [1]) and 5 nM on JAK2 (setting [1]).

For `N#CCC1(n2cc(C(N)=O)c(Nc3ccccc3)n2)CCN(C(=O)c2ccc(N3CCOCC3)cc2)CC1` [Example 34-31, 1-{4-(cyanomethyl)-1-[(4-morpholin-4-ylphenyl)carbonyl]piperidin-4-yl}-3-(phenylamino)-1H-pyrazole-4-carboxamide], the figures for the IC50 on JAK1 (setting [1]) and against JAK2 (setting [1]) were 61 nM and 704 nM, respectively.

For the origin of these results see patent US9328099B2, “Cyanomethylpyrazole carboxamides as janus kinase inhibitors” (Merck Sharp & Dohme Corp., priority 2011, dated 2016).
